Source: patent US20080105961A1, “Ligands of the Molecule Fit (Agt-121) and their Pharmaceutical Use” (priority 2004, published 2008)
Marks after values point to notes of the source that are not given here. Blank lines part the entries; values can stand above or below the molecule they belong to.

Assays:
FIT mRNA [1] = experiment: ICV infusion of FIT antisense ODN in Psammomys obesus: food intake and body weight; assay type: in vivo
Description: To further investigate the orexigenic properties of FIT intracerebroventricular (ICV) antisense suppression of FIT was performed. This involved the infusion of FIT antisense oligonucleotides (ODNs) directly into the lateral ventricle space of the brain to suppress endogenous FIT mRNA levels. The effects of this treatment on food intake and body weight were measured and compared to control animals infused with a jumbled sequence ODN, or saline alone. 18 week old, male, lean, normal glucose tolerant (nGT) P. obesus animals were utilised for this study and infused with either saline, FIT antisense ODN, or jumbled ODN at 24 μg/day for four days. The sequence of the FIT antisense ODN was 5′-mu*mg*mg*mc*ma*g*a*a*t*t*g*c*a*mu*mu*mc*mc*mu*-3′, and the jumbled ODN 5′-mc*mg*mc*ma*mc*t*t*a*g*c*t*a*c*mu*mu*mg*mc*mu-3′, where m indicates the presence of a 2′O-Methyl-modified base, and * indicates a phosphorothioate linkage.

FIT mRNA [2] = experiment: ICV infusion of FIT antisense ODN in Sprague Dawley rats: food intake and body weight; assay type: in vivo
Description: To confirm the appetite-suppressing and weight-reducing effects of central FIT suppression in an animal model other than P. obesus, the inventors performed the same experiments in Sprague Dawley rats. Male, 12 week old Sprague Dawley rats were infused with either saline, FIT antisense ODN, or jumbled ODN at 24 μg/day for four days. The sequence of the FIT antisense ODN and the jumbled ODN are the same as in Example 2 above.

FIT mRNA [3] = experiment: Hypothalamic FIT gene expression by semi-quantitative RT-PCR in ICV antisense-treated rats; assay type: in vivo, Sprague Dawley rats; conditions: hypothalamus
Description: To confirm endogenous suppression of FIT in antisense-treated Sprague Dawley rats, FIT mRNA in the hypothalamus of these animals was measured.

FIT mRNA [4] = experiment: Pair-feeding study with indirect calorimetry (24 h): body weight, food intake, total energy expenditure; assay type: in vivo, Sprague Dawley rats
Description: To investigate the mechanism of weight loss after FIT antisense treatment, a group of Sprague Dawley rats were pair fed to the average daily food intake levels of FIT antisense-treated rats, and indirect calorimetry (24 h) was performed before and after FIT antisense or jumbled ODN ICV infusion.
Total energy expenditure (TEE) was calculated from measurements of oxygen consumption and carbon dioxide production using indirect calorimetry (Ferrannini, 1988). Due to differences in body weight between the three groups of rats, TEE levels were calculated relative to whole body mass of the animals. […] FIT antisense-treated rats therefore have an inappropriately high level of energy expenditure for their body weight.

FIT mRNA [5] = experiment: Metabolic heat production by indirect calorimetry (FIG. 1); assay type: in vivo, Sprague Dawley rats; conditions: Sprague Dawley rats, after three days of treatment
Description: FIG. 1 is a graphical representation of metabolic heat production in Sprague Dawley rats after three days of FIT antisense-treatment compared to jumbled ad libitum fed and jumbled pair fed rats. *p<0.05 pair fed compared to jumbled group, #p<0.05 pair fed compared to FIT antisense-treated group, ̂p<0.05 compared to both jumbled and FIT antisense-treated groups. Data are mean ±SEM.
To further dissect the nature of the inability to reduce TEE levels after FIT antisense treatment, metabolic heat production was measured by indirect calorimetry.

melanocortin receptor = experiment: Feeding response to ICV injection of SHU9119 after three days of ODN or saline infusion; assay type: in vivo, Sprague Dawley rats
Description: To further analyse the link between FIT and the melanocortin system, the feeding response of Sprague Dawley rats to an ICV injection of SHU9119, a melanocortin receptor antagonist and known feeding stimulator was investigated. After three days of FIT antisense treatment, jumbled oligonucleotide or saline infusion, responses were compared to rats receiving an ICV injection of saline vehicle rather than SHU9119.

MC4R = biological target: T1, MC4R (Rattus norvegicus, UniProt P70596); experiment: Feeding response to MT II after ODN or saline infusion; assay type: in vivo, Sprague Dawley rats; conditions: for Δ FI: 24 hr food intake post minus pre injection; for Δ FI / 24 hr FI post injection / 24 hr FI pre injection: mean ± SEM; for 24 hr FI post injection: food intake after MT II or vehicle injection; for 24 hr FI pre injection: food intake, during ICV infusion, before MT II or vehicle injection
T1 construct: from tissue; host or cells: living Sprague Dawley rats (brain)
T1 sequence (P70596 whole entry, the tested form may be a part): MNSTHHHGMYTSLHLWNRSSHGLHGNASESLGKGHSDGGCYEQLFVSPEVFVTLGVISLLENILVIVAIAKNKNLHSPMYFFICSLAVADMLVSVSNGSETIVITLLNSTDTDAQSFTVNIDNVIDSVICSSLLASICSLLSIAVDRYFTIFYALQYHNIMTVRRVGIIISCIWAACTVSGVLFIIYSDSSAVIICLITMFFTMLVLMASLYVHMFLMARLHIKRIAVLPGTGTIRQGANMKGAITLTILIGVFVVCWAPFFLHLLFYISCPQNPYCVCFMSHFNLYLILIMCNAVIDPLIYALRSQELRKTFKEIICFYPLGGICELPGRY
Description: To further investigate this relationship, antisense suppression of FIT in Sprague Dawley rats was again performed and these animals' responses to administration of the α-MSH analog MT II, a synthetic agonist of the MC4R and known suppressor of feeding. MT II effects on food intake and body weight in saline and jumbled ODN-treated control rats, as well as in FIT antisense-treated rats was measured.

MC3R and MC4R = conditions: ICV infusion, mice (Murphy et al. 1998); cited from earlier work
FIT gene expression = FIT gene expression in the hypothalamus of monogenic mouse models of obesity; assay type: in vivo; conditions: leptin-treated ob/ob mice, mean ± SEM
Description: To investigate the molecular pathway via which FIT affect food intake, FIT gene expression was measured in the hypothalamus of several different monogenic mouse models of obesity. […] FIT gene expression was not altered in other genetic models of obesity such as leptin deficient ob/ob mice, MC3R knockout mice and MC4R knockout mice.

SH3GL2; endophilin 1 [6] = biological target: T2, SH3GL2; endophilin 1 (human, UniProt Q99962 1-352); experiment: yeast two-hybrid screen of a human brain cDNA library (14 clones)
T2 construct: Prey clone from a human brain cDNA library; not shown: not specified
T2 sequence (Q99962 whole entry): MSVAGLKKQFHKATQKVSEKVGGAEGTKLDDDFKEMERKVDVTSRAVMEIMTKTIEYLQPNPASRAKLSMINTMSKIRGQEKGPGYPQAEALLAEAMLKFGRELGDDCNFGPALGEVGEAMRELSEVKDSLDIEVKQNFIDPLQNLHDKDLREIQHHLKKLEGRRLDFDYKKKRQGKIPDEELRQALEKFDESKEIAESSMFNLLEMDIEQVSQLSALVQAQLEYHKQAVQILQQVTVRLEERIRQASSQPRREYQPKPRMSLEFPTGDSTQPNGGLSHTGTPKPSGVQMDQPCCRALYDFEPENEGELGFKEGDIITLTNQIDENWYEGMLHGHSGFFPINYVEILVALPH
Description: (§1) The inventors utilised a yeast two-hybrid system which incorporates modifications by Chevray and Nathans (1992), and Vidal et al. (1996) to screen a human brain cDNA library.

SH3GL2; endophilin 1 [7] = biological target: T2, SH3GL2; endophilin 1; experiment: yeast two-hybrid screen of a human brain cDNA library (12 clones)
Description: as §1

[8] = ICV 24 μg/day, day 1, mean ± SEM
[9] = ICV 24 μg/day, day 2, mean ± SEM
[10] = ICV 24 μg/day, day 3, mean ± SEM
[11] = ICV 24 μg/day, day 4, mean ± SEM
[12] = baseline body weight, mean ± SEM
[13] = change compared to day 0, mean ± SEM
[14] = not pair fed (jumbled group ad libitum fed), mean ± SEM

Δ FI (MC4R): −0.01 ± 0.01^c g/g BW
24 hr FI post injection (MC4R): 0.03 ± 0.01 g/g BW
24 hr FI pre injection (MC4R): 0.04 ± 0.01^d g/g BW
Molecule: 5′-mu*mg*mg*mc*ma*g*a*a*t*t*g*c*a*mu*mu*mc*mc*mu*-3′ [FIT antisense]
Cumulative food intake, Day 1 Food (FIT mRNA [1]; [8]): 6.5 ± 1.6^a g
Cumulative food intake, Day 2 Food (FIT mRNA [1]; [9]): 12.3 ± 2.9^a g
Cumulative food intake, Day 3 Food (FIT mRNA [1]; [10]): 18.9 ± 3.9^a g
Cumulative food intake, Day 4 Food (FIT mRNA [1]; [11]): 27.4 ± 4.4^a,b g
Day 1 BW (FIT mRNA [1]; ICV 24 μg/day, mean ± SEM): 195 ± 7 g
Day 2 BW (FIT mRNA [1]; ICV 24 μg/day, mean ± SEM): 194 ± 8 g
Day 3 BW (FIT mRNA [1]; ICV 24 μg/day, mean ± SEM): 192 ± 7 g
Day 4 BW (FIT mRNA [1]; ICV 24 μg/day, mean ± SEM): 190 ± 7 g
cumulative food intake compared to jumbled oligonucleotide-infused and saline-treated control animals (FIT mRNA [1]; ICV, after four days of treatment): significantly reduced
Day 0 BW (FIT mRNA [1]; [12]): 199 ± 7 g
Day 1 ΔBW (FIT mRNA [1]; [13]): −4.5 ± 0.7^a g
Day 2 ΔBW (FIT mRNA [1]; [13]): −5.7 ± 2.1^a g
Day 3 ΔBW (FIT mRNA [1]; [13]): −7.7 ± 1.8^a g
Day 4 ΔBW (FIT mRNA [1]; [13]): −9.2 ± 1.5^a,b g
Cumulative food intake, Day 1 Food (FIT mRNA [2]; [8]): 8.6 ± 1.6^a,b g
Cumulative food intake, Day 2 Food (FIT mRNA [2]; [9]): 23.4 ± 2.6^a,b g
Cumulative food intake, Day 3 Food (FIT mRNA [2]; [10]): 38.3 ± 3.6^a,b g
Cumulative food intake, Day 4 Food (FIT mRNA [2]; [11]): 55.0 ± 4.9^a,b g
Day 1 BW (FIT mRNA [2]; ICV 24 μg/day, mean ± SEM): 425 ± 37 g
Day 2 BW (FIT mRNA [2]; ICV 24 μg/day, mean ± SEM): 415 ± 37 g
Day 3 BW (FIT mRNA [2]; ICV 24 μg/day, mean ± SEM): 410 ± 38^a g
Day 4 BW (FIT mRNA [2]; ICV 24 μg/day, mean ± SEM): 408 ± 37^a g
Day 0 BW (FIT mRNA [2]; [12]): 444 ± 37 g
Day 1 ΔBW (FIT mRNA [2]; [13]): −19.6 ± 2.9^b g
Day 2 ΔBW (FIT mRNA [2]; [13]): −28.8 ± 4.1^a,b g
Day 3 ΔBW (FIT mRNA [2]; [13]): −34.4 ± 4.1^a,b g
Day 4 ΔBW (FIT mRNA [2]; [13]): −36.6 ± 6.7^a,b g
FIT gene expression (FIT mRNA [3]; ICV-treated Sprague Dawley rats, mean ± SEM): 6.6 ± 1.0^a arbitrary units
FIT gene expression suppressed compared to jumbled-treated rats (FIT mRNA [3]; Sprague Dawley rats): 20%
FIT gene expression suppressed compared to saline-treated rats (FIT mRNA [3]; Sprague Dawley rats): 37%
ability to reduce TEE levels (FIT mRNA [4]; Sprague Dawley rats, TEE relative to whole body mass): unable to significantly reduce
Day 0 BW (FIT mRNA [4]; not pair fed (jumbled group ad libitum fed), baseline, mean ± SEM): 408 ± 13 g
Day 4 BW (FIT mRNA [4]; [14]): 338 ± 12^a,c g
Food Intake (FIT mRNA [4]; [14]): 36.4 ± 11.2^a g
Δ BW (FIT mRNA [4]; [14]): −70.0 ± 8.6^a,b g
Δ TEE (FIT mRNA [4]; not pair fed, mean ± SEM): -67 ± 25 kJ/day/kg
Post TEE (FIT mRNA [4]; not pair fed, total energy expenditure after ICV infusion, mean ± SEM): 525 ± 22 kJ/day/kg
Pre TEE (FIT mRNA [4]; not pair fed, total energy expenditure before ICV infusion, mean ± SEM): 592 ± 30 kJ/day/kg
metabolic heat production (FIT mRNA [5]): inability to reduce heat production
Δ FI (melanocortin receptor; 48 hr food intake post minus pre injection, mean ± SEM): 0.02 ± 0.01 g/g BW
48 hr FI post injection (melanocortin receptor; food intake relative to body weight, after ICV SHU9119 or vehicle injection, mean ± SEM): 0.09 ± 0.01^b,d g/g BW
48 hr FI pre injection (melanocortin receptor; food intake relative to body weight, during ICV infusion, before SHU9119 or vehicle injection, mean ± SEM): 0.07 ± 0.01^b g/g BW
feeding response after SHU9119 injection compared to jumbled-treated or saline-treated rats (melanocortin receptor; relative to body weight): significantly increased

Δ FI (MC4R): −0.04 ± 0.01 g/g BW
24 hr FI post injection (MC4R): 0.03 ± 0.01^a g/g BW
24 hr FI pre injection (MC4R): 0.07 ± 0.01 g/g BW
Molecule: MT II
inhibitory effect on food intake in rats pre-treated with FIT antisense ODN versus control groups (MC4R; not statistically significantly different from control groups): tended to have a greater inhibitory effect
effect on food intake (MC3R and MC4R): decrease food intake

B1: Leptin: leptin given to leptin deficient ob/ob mice (protein, UniProt P41160 22-167, looked up)
Leptin: VPIQKVQDDTKTLIKTIVTRINDISHTQSVSAKQRVTGLDFIPGLHPILSLSKMDQTLAVYQQVLTSLPSQNVLQIANDLENLRDLLHLLAFSKSCSLPQTSGLQKPESLDGVLEASLYSTEVVALSRLQGSLQDILQQLDVSPEC
FIT gene expression (FIT gene expression): 1.3 ± 0.3 arbitrary units

binding result (SH3GL2; endophilin 1 [6]): binds
B2: FIT-NP (FIT N-terminal plus proline-rich region), yeast two-hybrid bait (other, not shown: small tags and cut ends)
chain: MMEGLKKRTRKAFGIRKKEKDTDSTGSPDRDGMQPSPHELPYHSKAECAREGGKKASKKSNGAPNGFYAEIDWERYNSPELDEEGYSIRPEEPGSTKGKHFYSSSESEEEEESHKKFNIKIKPLQSKDILKNAATVDELKASIGNIALSPSPVRKSPRRSPGAIKRNLSSEEVARPRRSTPTPELTSKKPLDDTLALAPLFGPPLESAFDGHKTEVLLDQPEIWGSGQPVNPSMESPKLARPFPTGTPPPLPPKTVPATPPRTGSPLTVATGNDQAATEAKIEKPPSISDLDSIFGPVLSPKSVAVNTEETWVHFSDASPEHVTPELTPREKVVTPPAASDIPADSPTPGPPGPPGSAGPPGPPGPRNVPSPLNLEEVQKKVAEQTFIKDDYLETLSSPKECGLGQRETPPPPPPPTYRTVVSSPGPGSGSGTGTASGASSPARPATPLVPCSCSTPPPPPPRPPSRPKLPPGKPGVGDVSRPFSPPIHSSSPPPIAPL
notes: Truncated fragment of FIT used as bait in a yeast two-hybrid screen of a human brain cDNA library; also called AGT-121

binding result (SH3GL2; endophilin 1 [7]): binds
B3: FIT-PR (FIT proline-rich region), yeast two-hybrid bait (other, not shown: small tags and cut ends)
chain: RPFPTGTPPPLPPKTVPATPPRTGSPLTVATGNDQAATEAKIEKPPSISDLDSIFGPVLSPKSVAVNTEETWVHFSDASPEHVTPELTPREKVVTPPAASDIPADSPTPGPPGPPGSAGPPGPPGPRNVPSPLNLEEVQKKVAEQTFIKDDYLETLSSPKECGLGQRATPPPPPPPTYRTVVSSPGPGSGSGTGTASGASSPARPATPLVPCSCSTPPPPPPRPPSRPKLPPGKPGVGDVSRPFSPPIHSSSPPPIAPL
notes: as for B2
